# Experimental data as given in US20070117770A1, “Human ribosomal DNA (rDNA) and ribosomal RNA (rRNA) nucleic acids and uses thereof” (Cylene Pharmaceuticals, Inc., priority 2005, published 2007).
# Assays:
# [1] = target: T1, nucleolin/7253NT (Homo sapiens, UniProt P19338); test: EMSA, interference with nucleolin/nucleic acid ligand interaction; type: binding; conditions: ligand 7253NT, read-out: IC50, concentration of Compound A-1 required to dissociate half of the complexed nucleic acid ligand and nucleolin protein
# T1 construct: without the N-terminal acidic stretches domain
# Experimental: (§1) The following assays assessed effects of compounds on interactions between nucleolin and nucleic acid ligands capable of forming quadruplex (QP) and hairpin (HP) secondary structures. Nucleic acid ligands tested were a cMyc QP DNA having nucleotide sequence 5′-[…]-3′ (SEQ ID NO: 176) and a HP pre-rRNA region to which nucleolin binds, having the sequence 5′-[…]-3′ (SEQ ID NO: 177). In the assays, recombinant nucleolin (˜250 nM), which was fused to maltose binding protein and had the sequence under accession number NM_005381 without the N-terminal acidic stretches domain, was incubated with each of the two ^32P-labeled nucleic acid ligands (10 or 250 nM). Nucleolin and the nucleic acid ligand were incubated in the presence or absence of a test compound of Formula A-1, B-1, C-6 or C-7 in an incubation buffer (12.5 mM Tris, pH 7.6, 60 mM KCl, 1 mM MgCl2, 0.1 mM EDTA, 1 mM DTT, 5% glycerol, 0.1 mg/ml BSA) for 30 minutes at room temperature. Structures for A-1 and B-1 are shown above and structures for C-6 and C-7 are shown hereafter: [drawing 17] The resulting complexes were separated on a 6% DNA retardation gel using 0.5× TBE with 20 mM KCl as a running buffer (i.e., electrophoresis mobility shift assay (EMSA)).
# (§2) The assay also was conducted using nucleic acid ligands derived from human ribosomal DNA. Sequences of these nucleic acids are shown in the preceding example. […] A “+” represents the weakest nucleolin affinity and least interference by compound A-1 and a “++++” represents the strongest nucleolin affinity and greatest interference by compound A-1.
# (§3) The assay also was conducted in a filter-binding format. […] The protein-quadruplex mixtures were incubated for 30 min at ambient temperature and filtered through mixed cellulose ester membrane filters (Millipore) with gentle suction. The filters were washed twice with […] of binding buffer, dried and OptiPhase ‘SuperMix’ scintillation cocktail (Perkin Elmer) was added to the wells. Radioactivity was assayed with MicroBeta scintillation counter (Perkin Elmer). Binding curves were constructed and apparent Kd's and Bmax's for the complexes were calculated using the GraphPad Prizm software program (GraphPad Software). In the following table, the nucleic acid ligand is designated in the first column using the nomenclature described herein; the second column provides the nucleotide sequence of the nucleic acid ligand; the third column is the conformation of the ligand as determined by circular dichroism (M is mixed, P is parallel, A is antiparallel, C is complex, SS is single-stranded and ND is not determined); the fourth column is the dissociation constant determined by the filter binding assay of nucleolin protein and the nucleic acid ligand; the fifth column is a Bmax constant determined by the filter binding assay, which is the percent of active nucleic acid ligand in each assay; and the sixth column presents the concentration of Compound A-1 required to dissociate half of the complexed nucleic acid ligand and nucleolin protein, as determined by the EMSA assay described above.
# [2] = target: T2, nucleolin/2957NT (Homo sapiens, UniProt P19338); test: as above; type: binding; conditions: ligand 2957NT, read-out: IC50, concentration of Compound A-1 required to dissociate half of the complexed nucleic acid ligand and nucleolin protein
# T2 construct: without the N-terminal acidic stretches domain
# Experimental: as §1, §2, §3
# [3] = target: T3, nucleolin/5701NT (Homo sapiens, UniProt P19338); test: as above; type: binding; conditions: ligand 5701NT, read-out: IC50, concentration of Compound A-1 required to dissociate half of the complexed nucleic acid ligand and nucleolin protein
# T3 construct: without the N-terminal acidic stretches domain
# Experimental: as §1, §2, §3
# [4] = target: T4, nucleolin/8762NT (Homo sapiens, UniProt P19338); test: as above; type: binding; conditions: ligand 8762NT, read-out: IC50, concentration of Compound A-1 required to dissociate half of the complexed nucleic acid ligand and nucleolin protein
# T4 construct: without the N-terminal acidic stretches domain
# Experimental: as §1, §2, §3
# [5] = target: T5, nucleolin/8511NT (Homo sapiens, UniProt P19338); test: as above; type: binding; conditions: ligand 8511NT, read-out: IC50, concentration of Compound A-1 required to dissociate half of the complexed nucleic acid ligand and nucleolin protein
# T5 construct: without the N-terminal acidic stretches domain
# Experimental: as §1, §2, §3
# [6] = target: T6, nucleolin/6960NT (Homo sapiens, UniProt P19338); test: as above; type: binding; conditions: ligand 6960NT, read-out: IC50, concentration of Compound A-1 required to dissociate half of the complexed nucleic acid ligand and nucleolin protein
# T6 construct: without the N-terminal acidic stretches domain
# Experimental: as §1, §2, §3
# [7] = target: T7, nucleolin/6374NT (Homo sapiens, UniProt P19338); test: as above; type: binding; conditions: ligand 6374NT, read-out: IC50, concentration of Compound A-1 required to dissociate half of the complexed nucleic acid ligand and nucleolin protein
# T7 construct: without the N-terminal acidic stretches domain
# Experimental: as §1, §2, §3
# [8] = target: T8, nucleolin/6534NT (Homo sapiens, UniProt P19338); test: as above; type: binding; conditions: ligand 6534NT, read-out: IC50, concentration of Compound A-1 required to dissociate half of the complexed nucleic acid ligand and nucleolin protein
# T8 construct: without the N-terminal acidic stretches domain
# Experimental: as §1, §2, §3
# [9] = tested on: other kinases; test: Protein kinase inhibition assays (panel, summary); type: biochemical; conditions: 2.5 μM
# Experimental: Certain compounds were tested for activity in protein kinase inhibition assays. All substrates were dissolved and diluted to working stocks in de-ionized water, apart from histone H1 (10× working stock in 20 mM MOPS pH 7.0), PDKtide (10× working stock in 50 mM Tris pH 7.0) ATF2 (which is typically stored at a 20× working stock in 50 mM Tris pH 7.5, 150 mM NaCl, 0.1 mM EGTA, 0.03% Brij-35, 50% glycerol, 1 mM benzamidine, 0.2 mM PMSF and 0.1% R-mercaptoethanol), KKLNRTLSFAEPG (SEQ ID NO:203) and RRRLSFAEPG (SEQ ID NO:204) (50 mM HEPES pH 7.4) and GGEEEEYFELVKKKK (SEQ ID NO:205) (20 mM MOPS pH 7.0). All kinases were pre-diluted to a 10× working concentration prior to addition into the assay. The composition of the dilution buffer for each kinase is detailed below.
# The following table denotes percent residual activity of each protein kinase when incubated with compound A-1 or B-1.
# T8 sequence (P19338 284-710 limits assumed): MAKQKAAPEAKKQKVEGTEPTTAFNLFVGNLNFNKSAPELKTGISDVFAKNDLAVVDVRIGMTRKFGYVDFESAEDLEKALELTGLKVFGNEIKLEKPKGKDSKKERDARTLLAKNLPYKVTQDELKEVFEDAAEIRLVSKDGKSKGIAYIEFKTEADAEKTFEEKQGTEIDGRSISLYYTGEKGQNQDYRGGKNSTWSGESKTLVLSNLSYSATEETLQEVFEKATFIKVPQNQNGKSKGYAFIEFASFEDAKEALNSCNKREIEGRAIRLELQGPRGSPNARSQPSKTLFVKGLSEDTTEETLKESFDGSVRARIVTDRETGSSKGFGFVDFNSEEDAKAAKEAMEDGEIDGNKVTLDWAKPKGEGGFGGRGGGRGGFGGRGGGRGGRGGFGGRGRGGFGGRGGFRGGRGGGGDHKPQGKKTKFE
# T5 sequence (P19338 284-710 limits assumed): as above
# T4 sequence (P19338 284-710 limits assumed): as above
# T7 sequence (P19338 284-710 limits assumed): as above
# T2 sequence (P19338 284-710 limits assumed): as above
# T3 sequence (P19338 284-710 limits assumed): as above
# T6 sequence (P19338 284-710 limits assumed): as above
# T1 sequence (P19338 284-710 limits assumed): as above
smiles,measurement,setting,value
CN1CCCC1CCNC(=O)c1cn2c3c(c(N4CCC(c5cnccn5)C4)c(F)cc3c1=O)Oc1cc3ccccc3cc1-2 (stereo not drawn) [Compound A-1],IC50,[1],10 µM
same,IC50,[2],1 µM
same,IC50,[3],3 µM
same,IC50,[4],10 µM
same,IC50,[5],10 µM
same,IC50,[6],3 µM
same,IC50,[7],3 µM
same,IC50,[8],10 µM
same,inhibition of other kinases,[9],60-80%
